The record followed here is patent publication US7138246B2, “Methods for identifying or screening for agents that modulate 17β-HSD3” (Bristol-Myers Squibb Company, priority 2004, dated 2006).

Assay [1] deals with T1, 17β-HSD3 (Homo sapiens, UniProt P37058).
T1 sequence (P37058 1-310): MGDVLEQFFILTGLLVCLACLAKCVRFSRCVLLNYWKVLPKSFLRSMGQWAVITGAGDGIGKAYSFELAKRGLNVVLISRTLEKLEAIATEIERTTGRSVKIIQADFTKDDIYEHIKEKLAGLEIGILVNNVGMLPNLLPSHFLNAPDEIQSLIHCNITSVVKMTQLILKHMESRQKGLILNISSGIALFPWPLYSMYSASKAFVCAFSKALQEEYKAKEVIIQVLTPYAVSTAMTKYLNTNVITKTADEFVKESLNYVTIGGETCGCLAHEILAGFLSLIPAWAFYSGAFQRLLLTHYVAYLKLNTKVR
Kind of assay: 17β-HSD3 scintillation proximity assay (SPA). The settings on record: for 17β-HSD3 inhibitory activity in the SPA: FIG. 3B. In kind it is biochemical. Details: made in house; CHAPS-solubilised 100,000 x g supernatant. On the procedure:
HEK293/17β-HSD3 cells were harvested by scraping or treatment with Cell Dissociation Buffer (Invitrogen) and collected in ice cold Phosphate Buffered Saline (PBS) containing a protease inhibitor cocktail (Complete Tabs, Roche Diagnostics). The cells were then pelleted by centrifugation at 1000 rpm and washed once more in the same buffer. The cells were then resuspended in 2× the cell pellet volume with ice cold lysis buffer (40 mM Tris-HCl pH7.5, 2 mM DTT, 1 mM EDTA, 10% Glycerol (v/v), 0.5% CHAPS (w/v), 1M 1-(3-sulfopropyl)pyridinium hydroxide, Complete Tab(s)) and dounce homogenized on ice. The crude lysate was then incubated on ice for 60 minutes to allow for membrane protein solubilization, followed by centrifugation at 100,000×g for 60 minutes at 4° C. The supernatant was then removed and dialyzed overnight at 4° C. against the enzyme storage buffer (40 mM Tris-HCl pH 7.5, 40 mM KCl, 2 mM DTT, 1 mM EDTA, 20% Glycerol (v/v), Complete Tab(s)). Protein concentration was determined by the Bradford assay, the enzyme was aliquotted, and stored at −80° C. Activity was assessed using the SPA described below.
SPA beads conjugated to anti-mouse IgG were incubated overnight in SPA Bead Buffer (50 mM Tris pH 8.0, 10% Glycerol (v/v)), with anti-Testosterone monoclonal antibody (2 μg antibody per 1 mg of SPA beads) under gentle rotation. The antibody saturated bead complex was then spun down at 500 rpm for 10 minutes at 4° C. and the beads were resuspended in SPA Bead Buffer at a final concentration of 0.5 mg/160 μL. The anti-T/SPA Beads were then stored at 4° C. until needed. Enzymatic assays were conducted in 30 μL total reaction volumes in 96-well white Optiplates (Perkin Elmer). The reaction buffer consisted of 50 mM MES pH 6.0, 2 mM DTT, 0.1% CHAPS, 3 mM NADPH, 10% Glycerol (v/v), 850 nM 4-Androstene-3,17-Dione, and 50 nM [3H]4-Androstene-3,17-Dione (Specific Activity 70–110Ci/mmol). Compounds were diluted such that the final concentration of ethanol and DMSO would not exceed 3% (v/v) and 1% (v/v) respectively, corresponding to concentrations that had little or no effect on enzymatic activity (data not shown). Previously prepared and frozen 17β-HSD3 enzyme was diluted into ice cold buffer containing 50 mM Mes, 40 mM KCl, 2 mM DTT, 1 mM EDTA, and 10% glycerol (v/v) and added last to the reaction mixture. The reaction was allowed to proceed for 60 minutes at room temperature and was stopped by the addition of 10 μL of 0.1N HCl. After the reactions were stopped, an excess of the anti-T/SPA Beads (0.5 mg) were added to each well to a final volume of 200 μL. The plates were sealed and shaken at ˜200 rpm on an orbital shaker at room temp for at least 90 minutes or overnight at 4° C. After allowing the beads to settle, the amount of [3H]Testosterone produced in each well was determined by scintillation counting on a Perkin Elmer TopCount instrument and collected as DPMs. The data was then analyzed and percent inhibition and/or IC50 values, based on 10 point serially diluted curves in duplicate or triplicate, were calculated using Microsoft Excel and XLFit programs. […] Input samples and unbound supernatants, from the enzymatic reactions, were quantitated by scintillation counting to aid in the calculation of bound versus free testosterone produced. Km values were calculated using the Lineweaver-Burke formula and plots where 1/v=(Km+[s])/(Vmax [s]). […]

Assay [2] addresses T1, 17β-HSD3. Description: 17β-HSD3 SEAP assay (PSA reporter) in MDA MB 453/17β-HSD3 cells. The conditions noted are these: MDA-MB453-17β-HSD3 cells, PSA-SEAP reporter, read-out: IC50, 17β-HSD3 cell based activity. Details: expressed in transfected cells. In kind it is cell-based. The protocol:
Cultured MDA MB 453/17β-HSD3 cells were trypsinized, spun at 1000 rpm for 10 minutes, and resuspended in DMEM/10% cFBS supplemented with 5 mM BES at a concentration of 4×10^7 cells per mL. The cells (aliquots of 1×10^7 cells) were then transiently transfected with 3 μg of the PSA-SEAP construct by electroporation at 0.22 kVolts and 960 μFD with a time constant of […]. After a short recovery period, the cells were spun down and resuspended in DMEM/10% cFBS and plated into 96-well tissue culture plates (5×10^5 cells per well in 50 μL). After overnight adherence, the compounds were diluted in DMEM/10% and cFBS was added to the cells. 24 hours later, the medium was removed, fresh media containing the compounds was added in the presence of 10 nM Androstenedione, and this mixture was allowed to incubate for 24 hours. 25 μL of the culture supernatant was then removed and plated into 96-well black Optiplates (Perkin Elmer) for SEAP measurement as described by the reagent manufacturer (Tropix). Briefly, the supernatant was heat inactivated at 65° C. for 30 minutes and then allowed to cool to room temperature. Assay buffer (25 μL, Tropix) was then added and allowed to mix for 5 minutes followed by the addition of the Reaction buffer (25 μL, Tropix) and the plates were then incubated for 20 minutes in the dark. Plates were then read using a Packard Instruments TopCount with luminescent detection and signal was captured for 10 seconds per well and photon emission (cps) was averaged. A standard MTS assay (Promega) as described by the manufacturer, was performed in parallel to normalize the data based on cell numbers. Data analysis including percent inhibition and IC50 determination, based on 10 point serially diluted curves in duplicate, was then performed using Microsoft Excel and XLFit.
The analysis of 17β-HSD3 steroid conversion by TLC is hampered by the limitation to examine large numbers of compounds. […] To test this system, a prostate specific antigen (PSA) reporter plasmid was transfected into MDA-MB453 cells stably expressing 17β-HSD3 and stimulated with different concentrations of androstenedione (FIG. 5B).
To evaluate the suitability of this cellular assay for monitoring 17β-HSD3 cell based activity, the inhibitory effects of 18β-glycyrrhetinic acid and […] were examined.

Structures are written as SMILES.

On to `CC1(C)[C@@H](O)CC[C@]2(C)[C@H]3C(=O)C=C4[C@@H]5C[C@@](C)(C(=O)O)CC[C@]5(C)CC[C@@]4(C)[C@]3(C)CC[C@@H]12` [18β-glycyrrhetinic acid], for which the “17β-HSD3 inhibitory activity in the SPA” value in assay [1] was “potent inhibitory activity”. For the same compound, the half-maximal inhibitory concentration (IC50) (as a rule, the midpoint of a concentration-inhibition curve) in assay [2] (FIG. 5C) came out at 3800 nM.

Regarding `COc1ccccc1CCNC(=O)c1cc(Oc2ccccc2)ccc1NC(=O)c1ccc(O)c(Cl)c1` [2-[(3-chloro-4-hydroxybenzoyl)amino]-N-[2-(2-methoxyphenyl)ethyl]-5-phenoxybenzamide], the half-maximal inhibitory concentration (IC50) in assay [1] (read-out: IC50, 17β-HSD3 biochemical activity) is 60 nM; in assay [2] it was 300 nM.

For the compound `C[C@]12C=CC(=O)C=C1C(=O)C[C@@H]1[C@@H]2CC[C@]2(C)C(=O)CC[C@@H]12` [1,4-androstadiene-1,6,17-trione], the “17β-HSD3 inhibitory activity in the SPA” value in assay [1] was “potent inhibitory activity”. Also, the half-maximal inhibitory concentration (IC50) in assay [2] (FIG. 5C) turned out to be 1600 nM.
